Measured values published in patent US4713369A, “Oligopeptidylargininol derivatives and their homologs, a process for their preparation, their use and agents containing them” (Behringwerke Aktiengellschaft, priority 1985, dated 1987).
Where two headings read alike, the source gives them in different places.

Key:
human α-thrombin = human α-thrombin (Homo sapiens, UniProt P00734)
Procedure: Test procedure: 700 μl of tris buffer, pH 8.2, are incubated with 100 μl of human α-thrombin (0.28 UI) and 100 μl of inhibitor solution at 37° C. for 5 min. After addition of 100 μl of Tos-Gly-Pip-Arg paranitroanilide (c×3 mMol/l), the extinction at 405 nm is measured.

[1] = system: spermatozoal endoprotease acrosin; conditions: results of Borin et al., Hoppe-Seyler's Z. Physiol. Chem. 362, 1435-1445, 1981; cited from earlier work
F Xa = F Xa (Homo sapiens, UniProt P00742); experiment: Inhibitory action against F Xa, analogous procedure (substrate Bzl-Ile-Glu-Gly-Arg pNA); format: biochemical; conditions: final inhibitor concentration 0.6 mmol/1
Chain of F Xa (P00742 235-488 limits assumed): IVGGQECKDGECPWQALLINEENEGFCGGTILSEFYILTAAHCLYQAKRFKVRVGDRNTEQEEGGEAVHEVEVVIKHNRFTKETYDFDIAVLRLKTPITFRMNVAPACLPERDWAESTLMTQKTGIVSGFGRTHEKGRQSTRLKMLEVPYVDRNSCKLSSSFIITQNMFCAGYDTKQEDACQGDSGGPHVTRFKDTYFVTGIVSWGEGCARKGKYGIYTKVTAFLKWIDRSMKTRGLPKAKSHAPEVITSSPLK
Chain of F Xa (P00742 41-179 partner limits assumed): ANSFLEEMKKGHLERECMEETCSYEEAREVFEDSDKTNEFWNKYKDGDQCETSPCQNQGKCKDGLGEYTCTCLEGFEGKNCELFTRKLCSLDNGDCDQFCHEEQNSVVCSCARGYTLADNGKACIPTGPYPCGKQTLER
Text: F Xa substrate: Bzl-Ile-Glu-Gly-Arg pNA (50% of the Glu as the methyl ester) (c=3 mmol/liter)

plasmin = plasmin (Homo sapiens, UniProt P00747); experiment: Inhibitory action against plasmin, analogous procedure (substrate D-norvalylcyclohexylalanylarginyl paranitroanilide); format: biochemical; conditions: final inhibitor concentration 0.6 mmol/1
Chain of plasmin (P00747 581-810 limits assumed, species assumed): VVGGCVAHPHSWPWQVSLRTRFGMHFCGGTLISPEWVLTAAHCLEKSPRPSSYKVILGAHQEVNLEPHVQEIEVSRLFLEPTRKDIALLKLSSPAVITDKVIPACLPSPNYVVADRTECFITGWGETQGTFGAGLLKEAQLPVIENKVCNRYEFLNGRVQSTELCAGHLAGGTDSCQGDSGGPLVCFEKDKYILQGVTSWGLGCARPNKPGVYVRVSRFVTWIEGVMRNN
Chain of plasmin (P00747 97-580 partner limits assumed, species assumed): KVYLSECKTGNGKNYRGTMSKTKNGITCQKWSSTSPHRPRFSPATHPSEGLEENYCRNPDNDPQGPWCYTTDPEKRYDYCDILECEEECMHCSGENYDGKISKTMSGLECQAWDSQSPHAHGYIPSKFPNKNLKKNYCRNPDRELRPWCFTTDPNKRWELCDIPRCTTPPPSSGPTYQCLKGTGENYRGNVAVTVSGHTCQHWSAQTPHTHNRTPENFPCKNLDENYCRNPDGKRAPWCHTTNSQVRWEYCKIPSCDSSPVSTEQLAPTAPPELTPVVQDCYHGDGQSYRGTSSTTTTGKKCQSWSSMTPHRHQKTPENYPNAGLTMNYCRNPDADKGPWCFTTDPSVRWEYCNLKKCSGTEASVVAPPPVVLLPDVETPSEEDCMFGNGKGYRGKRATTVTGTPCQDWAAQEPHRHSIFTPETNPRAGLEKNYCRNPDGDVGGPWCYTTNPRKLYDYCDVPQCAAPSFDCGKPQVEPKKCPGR
Text: (plasmin substrate: D-norvalylcyclohexylalanylarginyl paranitroanilide (c=3 mmol/l)).

Question: For `N=C(N)NCCCCCC(=O)Oc1ccc(CCC(=O)O)cc1` [4-carboxyethylphenyl ε-guanidinocaproate, reference compound], which IC50 (human α-thrombin) is on record?
Answer: 3.65 ± 0.05 µM

Question: With `Cl.Cl.NC(N)=NCCC[C@@H](COC(=O)c1ccc([N+](=O)[O-])cc1)NC(=O)[C@@H]1CCCN1C(=O)[C@H](N)Cc1ccccc1` [D-Phe-Pro-argininol-4-nitrobenzoate dihydrochloride] as the molecule, how does the “inhibitory action on thrombin (in words)” value (human α-thrombin) read?
Answer: approximately corresponded to that of 4-carboxyethylphenylε-guanidinocaproate

Question: With `CC(=O)O.CC(C)C[C@H](NC(=O)OC(C)(C)C)C(=O)N[C@@H](CC(C)C)C(=O)N[C@H](C=O)CCCNC(=N)N.O` [Boc-Leu-Leu-argininal . acetic acid . H2 O] as the molecule, how does the “inhibition of acrosin (in words)” value [1] read?
Answer: very active inhibitor

Question: What does the source list for `N=C(N)NCCC[C@@H](CO)NC(=O)[C@@H]1CCCN1C(=O)[C@H](N)Cc1ccccc1.O=C(O)C(F)(F)F.O=C(O)C(F)(F)F` [D-Phe-Pro-argininol ditrifluoroacetate, D-Phe-Pro-Arg-CH2 OH×2CF3 COOH]?
Answer: inhibitory action on thrombin (in words) (human α-thrombin): potent inhibition of thrombin; inhibitory action on thrombin (in words) (human α-thrombin; listed as D-phenylalanyl-L-prolyl-L-argininol): especially strong; F X a inhibition (F Xa): 49 % inhibition; Plasmin inhibition (plasmin): 67 % inhibition

Question: For `CC(C)(C)OC(=O)N[C@H](Cc1ccccc1)C(=O)N1CCC[C@H]1C(=O)N[C@H](CO)CCCNC(=N)N` [Boc-D-Phe-Pro-Arg CH2 --OH], which “action in the thrombin inhibition test, times less than that of H-D-Phe-Pro-Arg CH2 --OH” value (human α-thrombin; relative to H-D-Phe-Pro-Arg CH2 --OH) is on record?
Answer: about 1,000 times
